Measured values published in ChEMBL document CHEMBL4732067, “Synthesis and evaluation of new compounds bearing 3-(4-aminopiperidin-1-yl)methyl magnolol scaffold as anticancer agents for the treatment of non-small cell lung cancer via targeting autophagy” (Eur J Med Chem, 2021).
Active and inactive are the calls of the source. The calls are words filed in the database; no cut-off is given here.

What was measured:
[1] = Antitumor activity against mouse C26 cells xenografted in BALB/c mouse assessed as tumor growth inhibition at 50 mg/kg, po administered once daily and measured every two days by caliper method relative to control; type: functional; details: 48 h, read-out: TGI
NCI-H1975 = test: Antiproliferative activity against human NCI-H1975 cells assessed as reduction in cell viability after 72 hrs by MTT assay; type: functional, cell-based; details: NCI-H1975, 72 h
NCI-H460 [2] = test: Induction of apoptosis in human NCI-H460 cells assessed as late apoptotic cells at 10 uM after 48 hrs by Annexin V-FITC/propidium iodide staining based flow cytometric analysis (reference value: 3.995 %); type: functional
NCI-H460 [3] = test: Induction of apoptosis in human NCI-H460 cells assessed as early apoptotic cells at 2 uM after 48 hrs by Annexin V-FITC/propidium iodide staining based flow cytometric analysis (reference value: 3.980 %); type: functional
NCI-H460 [4] = test: Induction of autophagy in human NCI-H460 cells assessed as degradation of SQSTM1/p62 at 0.5 to 10 uM measured after 24 hrs by Western blot analysis; type: functional, cell-based; details: dose 0.5-10 µM
NCI-H460 [5] = test: Induction of apoptosis in human NCI-H460 cells assessed as necrotic cells at 5 uM after 48 hrs by Annexin V-FITC/propidium iodide staining based flow cytometric analysis (reference value: 0.498 %); type: functional
NCI-H460 [6] = test: Induction of apoptosis in human NCI-H460 cells assessed as necrotic cells at 1 uM after 48 hrs by Annexin V-FITC/propidium iodide staining based flow cytometric analysis (reference value: 0.498 %); type: functional
NCI-H1650 = test: Antiproliferative activity against human NCI-H1650 cells expressing EGFR mutant assessed as reduction in cell viability after 72 hrs by MTT assay; type: functional, cell-based; details: NCI-H1650, 72 h
NCI-H460 [7] = test: Induction of autophagy-induced cell death in human H460 cells at 0.04 to 5 uM after 24 hrs in presence of chloroquine diphosphate by MTT assay; type: functional, cell-based; details: dose 0.04-5 µM
HCC827 = test: Antiproliferative activity against human HCC827 cells assessed as reduction in cell viability after 72 hrs by MTT assay; type: functional, cell-based; details: HCC827, 72 h
NCI-H460 [8] = test: Antiproliferative activity against human NCI-H460 cells assessed as reduction in cell viability after 72 hrs by MTT assay; type: functional, cell-based; details: NCI-H460, 72 h
NCI-H460 [9] = test: Induction of apoptosis in human NCI-H460 cells assessed as late apoptotic cells at 1 uM after 48 hrs by Annexin V-FITC/propidium iodide staining based flow cytometric analysis (reference value: 3.995 %); type: functional
NCI-H460 [10] = test: Induction of apoptosis in human NCI-H460 cells assessed as increase in cleaved caspase 3 expression level after 48 hrs by Western blot analysis; type: functional, cell-based; details: dose 0.5-10 µM
NCI-H460 [11] = test: Induction of cell cycle arrest in human NCI-H460 cells assessed as accumulation at G2/M phase at 1 uM incubated for 24 hrs by propidium iodide staining based flow cytometry (reference value: 16.71 %); type: functional
NCI-H460 [12] = test: Induction of cell cycle arrest in human NCI-H460 cells assessed as accumulation at S phase at 0.5 uM incubated for 24 hrs by propidium iodide staining based flow cytometry (reference value: 29.32 %); type: functional
NCI-H460 [13] = test: Induction of cell cycle arrest in human NCI-H460 cells assessed as accumulation at S phase at 5 uM incubated for 24 hrs by propidium iodide staining based flow cytometry (reference value: 29.32 %); type: functional

## C=CCc1ccc(OC(C)C)c(-c2cc(CC=C)cc(CN3CCC(N)CC3)c2O)c1
[1]
  inhibition in vivo at 50 mg/kg: 65.4%
NCI-H1975
  IC50: 930 nM
NCI-H460 [2]
  Activity: 33.48%
NCI-H460 [3]
  Activity: 5.363%
NCI-H460 [4]
  Activity: Active
NCI-H460 [5]
  Activity: 0.608%
NCI-H460 [6]
  Activity: 0.394%
NCI-H1650
  IC50: 820 nM
NCI-H460 [7]
  Activity: Active
HCC827
  IC50: 630 nM
NCI-H460 [8]
  IC50: 860 nM
NCI-H460 [9]
  Activity: 3.979%
NCI-H460 [10]
  Activity: Dose-dependent effect
NCI-H460 [11]
  Activity: 19.64%
NCI-H460 [12]
  Activity: 23.58%
NCI-H460 [13]
  Activity: 22.61%
